Square brackets hold non-standard residues; d marks the D form. * marks the point of attachment. pGlu = O=C1CC[C@@H](C(=O)O)N1; Octanoyl = CCCCCCCC(=O)*

The assay concerns HCl induced pain. Briefly: Analgesic assay: licks after subcutaneous HCl injection following topical ointment. It is filed as in vivo, hamsters. On the procedure: In each test, a few tens of hamsters of similar weight and age were used. The hamsters were divided into groups according to the number of samples to be tested. Ointment (50% Lanolin and 50% Vaseline) containing the tested substance was applied to the animal's fur on the back region. The fur was not removed so as to ensure that no damage to the skin occurred. A control group of hamsters was treated with ointment without the fraction of the invention. Hamsters were treated by topical application for 6, 14, 21 or 28 consecutive days. The test for analgesity was conducted following the last application of the ointment. In an alternate protocol, analgesity was tested following a single application of the ointment.
Subsequently to application of the ointment, the hamsters “clean” themselves by dispersing the ointment all over their body with their tongue and legs. Thus, some of the ointment is introduced into the oral cavity and possibly also into the intestine of the hamsters.
In a typical test, a constant amount of ointment with or without an analgesic substance is applied to each animal for a predetermined period of one or more days. Following this period, pain is induced by a subcutaneous injection of 0.5 ml of 1N HCl/0.1 kg body weight in the femur region. The hamsters respond to the HCl injection by touching the area of injection with the tongue, this being called a “lick”. 20 minutes after injection the hamster is observed for 60 min and the number of “licks” are counted. The number of “licks” serves as a quantitative indication of the HCl induced pain.
The analgesic effect is determined by comparing the mean number of “licks” in control animals to the number in treated animals. The significance of the difference was determined using t-test statistics.
0.6 mg of pENW, pENWK-C8 or pENWGAT (a dimer of pENW) were dissolved in 5 ml of DDW, mixed by an ultrasonic mixer for 2 minutes and then dissolved in […] of ointment. The final peptide concentration was 0.002 mg/gr.
6 applications were made over a period of 4 weeks. The test for analgesity was conducted 10 days following the last application of the ointment.
Compositions at a concentration of 0.020 mg/g were prepared as in Example 1 containing the following active ingredients: pENW, pEEW, or pENTW or pENWT. 6 applications were made over a period of 5 weeks. The results are summarized below:
A composition containing pENW—C8 at a concentration of 0.002 mg/g ointment was prepared as in Example 1. A single application was made to the animals, and analgesity was assayed 11, 23 and 48 days post-application. Ointment without an active substance was applied to the control animals.

[1] abbreviates: Example 2: 0.020 mg/g in ointment, topical, 6 applications over 5 weeks, control 117.
[2] abbreviates: Example 1: 0.002 mg/gr in ointment, topical, 6 applications over 4 weeks, tested 10 days after last application, control 113.9.

On to pGLU-GLU-TRP—OH [pEEW], for which the “mean number of licks” value under setting [1] turned out to be 35.

“pGLU-ASN-TRP-LYS(octanoyl)-OH ([pGlu]NWK(Octanoyl)-OH; SMILES CCCCCCCC(=O)NCCCC[C@H](NC(=O)[C@H](Cc1c[nH]c2ccccc12)NC(=O)[C@H](CC(N)=O)NC(=O)[C@@H]1CCC(=O)N1)C(=O)O) [pENWK-C8]”: under setting [2], the “mean number of licks” value is on record as 37.9.

Turning to pGLU-ASN-TRP—OH [pENW], the “mean number of licks” value runs as follows: under setting [2], 59.7; under setting [1], 44.

Turning to pGlu-Asn-Trp-O-octyl [pENW—C8], the “mean number of licks” value reads like this: (Example 3: 0.002 mg/g ointment, single application, 11 days post application, control 106) 66; (Example 3: 0.002 mg/g ointment, single application, 23 days post application, control 106) 35.7; (Example 3: 0.002 mg/g ointment, single application, 48 days post application, control 106) 62.4.
